Assay [1] has as its target SRPK1 (Homo sapiens, UniProt Q96SB4). Kind of assay: Z'-LYTE kinase assay, SRPK1 inhibition. Type of assay: biochemical. On the procedure: (§1) IC50 values were determined by Z'-LYTE® kinase assay (catalog number PV3193, Invitrogen™) as described in Hatcher et al., Cell Chem. Biol. 25:460-470 (2018).
Assay [2] deals with SRPK2 (Homo sapiens, UniProt P78362). Kind of assay: Z'-LYTE kinase assay, SRPK2 inhibition. The class given is biochemical. The method, then: as §1
The mark [3] stands for this setting: Z'-LYTE kinase assay, read-out: IC50 (nM) SRPK1.
The mark [4] stands for this setting: Z'-LYTE kinase assay, read-out: IC50 (nM) SRPK2.

Like-named read-outs stand apart in the source and are kept apart here.

SRPK2, sequence (P78362 whole entry): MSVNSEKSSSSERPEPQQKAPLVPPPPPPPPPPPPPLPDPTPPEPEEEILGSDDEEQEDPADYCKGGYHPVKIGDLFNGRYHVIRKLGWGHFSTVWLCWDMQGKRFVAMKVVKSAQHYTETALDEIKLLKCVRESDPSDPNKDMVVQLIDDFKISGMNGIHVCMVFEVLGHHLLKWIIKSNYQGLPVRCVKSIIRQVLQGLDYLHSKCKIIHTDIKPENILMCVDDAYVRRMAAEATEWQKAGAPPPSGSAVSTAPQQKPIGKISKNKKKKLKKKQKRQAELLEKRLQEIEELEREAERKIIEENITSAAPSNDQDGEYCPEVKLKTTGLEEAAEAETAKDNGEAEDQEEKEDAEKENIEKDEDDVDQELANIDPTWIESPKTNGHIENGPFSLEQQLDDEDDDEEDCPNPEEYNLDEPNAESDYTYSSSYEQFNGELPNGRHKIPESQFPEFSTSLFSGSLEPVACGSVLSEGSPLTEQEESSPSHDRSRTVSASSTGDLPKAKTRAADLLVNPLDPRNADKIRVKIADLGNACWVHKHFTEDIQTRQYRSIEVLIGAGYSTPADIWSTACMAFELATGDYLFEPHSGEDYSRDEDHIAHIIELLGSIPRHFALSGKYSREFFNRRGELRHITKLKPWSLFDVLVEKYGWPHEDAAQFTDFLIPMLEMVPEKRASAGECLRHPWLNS
SRPK1, sequence (Q96SB4 whole entry): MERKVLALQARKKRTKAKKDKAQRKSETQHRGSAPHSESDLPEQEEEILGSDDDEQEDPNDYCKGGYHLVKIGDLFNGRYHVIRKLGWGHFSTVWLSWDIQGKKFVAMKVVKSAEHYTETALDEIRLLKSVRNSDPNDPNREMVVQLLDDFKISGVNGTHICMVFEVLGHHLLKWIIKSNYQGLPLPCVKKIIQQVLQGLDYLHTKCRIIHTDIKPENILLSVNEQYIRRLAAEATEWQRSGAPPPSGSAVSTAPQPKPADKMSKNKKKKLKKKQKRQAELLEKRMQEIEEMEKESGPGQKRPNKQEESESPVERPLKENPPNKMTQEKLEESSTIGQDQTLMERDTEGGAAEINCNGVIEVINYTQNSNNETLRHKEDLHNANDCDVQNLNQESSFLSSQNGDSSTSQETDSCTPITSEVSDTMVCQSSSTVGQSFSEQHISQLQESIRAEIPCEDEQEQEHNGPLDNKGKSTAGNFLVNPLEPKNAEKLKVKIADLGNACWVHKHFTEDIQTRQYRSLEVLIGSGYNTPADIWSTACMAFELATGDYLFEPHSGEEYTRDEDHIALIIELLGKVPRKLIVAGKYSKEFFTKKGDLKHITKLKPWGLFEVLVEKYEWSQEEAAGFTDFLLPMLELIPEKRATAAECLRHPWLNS

Turning to `CCc1cc2c(=O)c3c4ccc(C#N)cc4[nH]c3n(C(C)C)c2cc1-c1cccc(S(=O)(=O)F)c1` [Compound 1, 3-(8-cyano-2-ethyl-5-isopropyl-11-oxo-6,11-dihydro-5H-indolo[2,3-b]quinolin-3-yl)benzenesulfonyl fluoride], the IC50 came out at 6 nM in assay [1] (setting [3]) and 9 nM in assay [2] (setting [4]).

With `COc1cc2c(=O)c3c4ccc(C#N)cc4[nH]c3n(C(C)C)c2cc1-c1cccc(S(=O)(=O)F)c1` [Compound 2, 3-(8-cyano-5-isopropyl-2-methoxy-11-oxo-6,11-dihydro-5H-indolo[2,3-b]quinolin-3-yl)benzenesulfonyl fluoride], the values for the IC50 in assay [1] and in assay [2] were 4 nM and 5 nM, respectively.

With `COc1cc2c(=O)c3c4ccc(C#N)cc4[nH]c3n(C(C)C)c2cc1-c1cncc(S(=O)(=O)F)c1` [Compound 3, 5-(8-cyano-5-isopropyl-2-methoxy-11-oxo-6,11-dihydro-5H-indolo[2,3-b]quinolin-3-yl)pyridine-3-sulfonyl fluoride], the half-inhibitory concentration (IC50) in assay [1] (setting [3]) was 6 nM; in assay [2] (setting [4]), 5 nM.

The record behind these values is patent US12497398B2, “Potent and selective covalent inhibitors of serine-arginine protein kinase (SRPK) 1 and SRPK2 and uses thereof” (DANA-FARBER CANCER INSTITUTE, INC., priority 2020, dated 2025).
